# Measured values from patent US8088801B2, “Aryloazol-2-yl cyanoethylamino compounds, method of making and method of using thereof” (Merial Limited, priority 2007, dated 2012).
# Tested on: Haemonchus contortus
# Assay: Method A: screening against Haemonchus contortus, L1 larvae in microtitre plate
# Settings: 96 h, test concentration 0.0025 ppm, 4 days assessment, read-out: motility inhibition
# Excerpt: Method A: Screening Method to Test Activity of Compounds Against Haemonchus contortus.
row,SMILES,inhibition at 0.0025 ppm [%]
1,"CC(C#N)(Cn1cc2ccc(Cl)c(Cl)c2n1)NC(=O)c1ccc(OC(F)(F)F)cc1 (stereo not shown) [Compound 2.045, N-[1-Cyano-2-(6,7-dichloro-2H-indazol-2-yl)-1-methylethyl]-4-trifluoromethoxybenzamide]",≥ 90
2,"COc1c2ccc(C(F)(F)F)cc2nn1CC(C)(C#N)NC(=O)c1ccc(OC(F)(F)F)cc1 (stereo not shown) [Compound 2.025, N-[1-Cyano-2-(3-methoxy-6-trifluoromethyl-2H-indazol-2-yl)-1-methylethyl]-4-trifluoromethoxybenzamide]",≥ 90
3,"CC(C#N)(Cn1nc2cc(Cl)ccc2c1Cl)NC(=O)c1ccc(OC(F)(F)F)cc1 (stereo not shown) [Compound 2.044, N-[1-Cyano-2-(3,6-dichloro-2H-indazol-2-yl)-1-methylethyl]-4-trifluoromethoxybenzamide]",≥ 90
4,"CC(C#N)(Cn1nc2c(Br)cc(Cl)c(Br)c2n1)NC(=O)c1ccc(OC(F)(F)F)cc1 (stereo not shown) [Compound 1.083, N-[2-(5-Chloro-4,7-dibromo-2H-benzotriazol-2-yl)-1-cyano-1-methylethyl]-4-trifluoromethoxybenzamide]",≥ 90
5,"COc1c2ccc(Br)cc2nn1CC(C)(C#N)NC(=O)c1ccc(OC(F)(F)F)cc1 (stereo not shown) [Compound 2.023, N-[2-(6-Bromo-3-methoxy-2H-indazol-2-yl)-1-cyano-1-methylethyl]-4-trifluoromethoxybenzamide]",≥ 90
6,"CC(C#N)(Cn1nc2cc(Cl)ccc2c1Br)NC(=O)c1ccc(OC(F)(F)F)cc1 (stereo not shown) [Compound 2.042, N-[2-(3-Bromo-6-chloro-2H-indazol-2-yl)-1-cyano-1-methylethyl]-4-trifluoromethoxybenzamide]",≥ 90
7,"CC(C#N)(Cn1nc2c(Cl)c(Br)c(Cl)c(Br)c2n1)NC(=O)c1ccc(OC(F)(F)F)cc1 (stereo not shown) [Compound 1.088, N-[1-Cyano-2-(4,6-dibromo-5,7-dichloro-2H-benzotriazol-2-yl)-1-methylethyl]-4-trifluoromethoxybenzamide]",≥ 90

# Same assay, conditions: 96 h, test concentration 0.01 ppm, 4 days assessment, read-out: motility inhibition
row,SMILES,inhibition at 0.01 ppm [%]
1,"CCOc1c2cc(Cl)ccc2nn1CC(C)(C#N)NC(=O)c1ccc(OC(F)(F)F)cc1 (stereo not shown) [Compound 2.014, N-[2-(5-Chloro-3-ethoxy-2H-indazol-2-yl)-1-cyano-1-methylethyl]-4-trifluoromethoxybenzamide]",≥ 90
2,"COc1c2ncc(Cl)c(C)c2nn1CC(C)(C#N)NC(=O)c1ccc(OC(F)(F)F)cc1 (stereo not shown) [Compound 3.008, N-[2-(6-Chloro-3-methoxy-7-methyl-2H-pyrazolo[4,3-b]pyridin-2-yl)-1-cyano-1-methylethyl]-4-trifluoromethoxybenzamide]",≥ 90
3,"CC(C#N)(Cn1nc2c(Cl)c(Cl)ccc2c1Cl)NC(=O)c1ccc(OC(F)(F)F)cc1 (stereo not shown) [Compound 2.039, N-[1-Cyano-1-methyl-2-(3,6,7-trichloro-2H-indazol-2-yl)ethyl]-4-trifluoromethoxybenzamide]",≥ 90
4,"Cc1cc(Cl)c(C)c2nn(CC(C)(C#N)NC(=O)c3ccc(OC(F)(F)F)cc3)nc12 (stereo not shown) [Compound 1.092, N-[2-(5-Chloro-4,7-dimethyl-2H-benzotriazol-2-yl)-1-cyano-1-methylethyl]-4-trifluoromethoxybenzamide]",≥ 90

# Same assay, conditions: 96 h, test concentration 0.04 ppm, 4 days assessment, read-out: motility inhibition
row,SMILES,inhibition at 0.04 ppm [%]
1,"CC(C#N)(Cn1nc2cc(Cl)cc(C#N)c2n1)NC(=O)c1ccc(OC(F)(F)F)cc1 (stereo not shown) [Compound 1.067, N-[2-(6-Chloro-4-cyano-2H-benzotriazol-2-yl)-1-cyano-1-methylethyl]-4-trifluoromethoxybenzamide]",≥ 90
2,"CC(C#N)(Cn1nc2ccc(Cl)c(Br)c2n1)NC(=O)c1ccc(OC(F)(F)F)cc1 (stereo not shown) [Compound 1.057, N-[2-(4-Bromo-5-chloro-2H-benzotriazol-2-yl)-1-cyano-1-methylethyl]-4-trifluoromethoxybenzamide]",≥ 90
3,"Cc1c(Cl)cnc2cn(CC(C)(C#N)NC(=O)c3ccc(OC(F)(F)F)cc3)nc12 (stereo not shown) [Compound 3.010, N-[2-(6-Chloro-7-methyl-2H-pyrazolo[4,3-b]pyridin-2-yl)-1-cyano-1-methylethyl]-4-trifluoromethoxybenzamide]",≥ 90
4,"COc1c2c(Cl)cc(Cl)cc2nn1CC(C)(C#N)NC(=O)c1ccc(OC(F)(F)F)cc1 (stereo not shown) [Compound 2.021, N-[1-Cyano-2-(4,6-dichloro-3-methoxy-2H-indazol-2-yl)-1-methylethyl]-4-trifluoromethoxybenzamide]",≥ 90
5,"Cc1cc(Cl)cc2cn(CC(C)(C#N)NC(=O)c3ccc(OC(F)(F)F)cc3)nc12 (stereo not shown) [Compound 2.006, N-[2-(5-Chloro-7-methyl-2H-indazol-2-yl)-1-cyano-1-methylethyl]-4-trifluoromethoxybenzamide]",≥ 90
6,"CC(C#N)(Cn1nc2ccc(Cl)cc2n1)NC(=O)c1ccc(Oc2ccccc2)cc1 (stereo not shown) [Compound 1.032, N-[2-(5-Chloro-2H-benzotriazol-2-yl)-1-cyano-1-methylethyl]-4-phenoxybenzamide]",≥ 90
7,"CC(C#N)(Cn1nc2cc(Cl)cc(C(F)CF)c2n1)NC(=O)c1ccc(OC(F)(F)F)cc1 (stereo not shown) [Compound 1.078, N-{2-[6-Chloro-4-(1,2-difluoroethyl)-2H-benzotriazol-2-yl]-1-cyano-1-methyl-ethyl}-4-trifluoromethoxybenzamide]",≥ 90
8,"CC(C#N)(Cn1nc2cc(Cl)cc(Br)c2n1)NC(=O)c1ccc(OC(F)(F)F)cc1 (stereo not shown) [Compound 1.060, N-[2-(4-Bromo-6-chloro-2H-benzotriazol-2-yl)-1-cyano-1-methylethyl]-4-trifluoromethoxybenzamide]",≥ 90
9,"C=Cc1cc(Cl)cc2nn(CC(C)(C#N)NC(=O)c3ccc(OC(F)(F)F)cc3)nc12 (stereo not shown) [Compound 1.075, N-[2-(6-Chloro-4-vinyl-2H-benzotriazol-2-yl)-1-cyano-1-methylethyl]-4-trifluoromethoxybenzamide]",≥ 90

# Same assay, conditions: 96 h, test concentration 0.15 ppm, 4 days assessment, read-out: motility inhibition
row,SMILES,inhibition at 0.15 ppm [%]
1,"COc1c2ccc([N+](=O)[O-])cc2nn1CC(C)(C#N)NC(=O)c1ccc(OC(F)(F)F)cc1 (stereo not shown) [Compound 2.033, N-[1-Cyano-2-(3-methoxy-6-nitro-2H-indazol-2-yl)-1-methylethyl]-4-trifluoromethoxybenzamide]",≥ 90
2,"CC(C#N)(Cn1nc2ccc(Cl)cc2n1)NC(=O)c1ccc(C(F)(F)F)cc1 (stereo not shown) [Compound 1.002, N-[2-(5-Chloro-2H-benzotriazol-2-yl)-1-cyano-1-methylethyl]-4-trifluoromethylbenzamide]",≥ 90
3,"CC(C#N)(Cn1nc2cc(Cl)cc(Cl)c2n1)NC(=O)c1ccc(S(=O)(=O)C(F)(F)F)cc1 (stereo not shown) [Compound 1.025, N-[1-Cyano-2-(4,6-dichloro-2H-benzotriazol-2-yl)-1-methylethyl]-4-trifluoromethylsulfonylbenzamide]",≥ 90
4,"CC(C#N)(Cn1cc2cc(Cl)cc(Cl)c2n1)NC(=O)c1ccc(Oc2ccccc2)cc1 (stereo not shown) [Compound 2.004, N-[1-Cyano-2-(5,7-dichloro-2H-indazol-2-yl)-1-methylethyl]-4-phenoxybenzamide]",≥ 90
5,"CC(C#N)(Cn1nc2cc(Cl)cc(C=O)c2n1)NC(=O)c1ccc(OC(F)(F)F)cc1 (stereo not shown) [Compound 1.079, N-[2-(6-Chloro-4-formyl-2H-benzotriazol-2-yl)-1-cyano-1-methylethyl]-4-trifluoromethoxybenzamide]",≥ 90
6,"CC(C#N)(Cn1nc2cccc(Cl)c2n1)NC(=O)c1ccc(Oc2ccccc2)cc1 (stereo not shown) [Compound 1.045, N-[2-(4-Chloro-2H-benzotriazol-2-yl)-1-cyano-1-methylethyl]-4-phenoxybenzamide]",≥ 90
7,"CC(C#N)(Cn1nc2cc(Cl)c(Cl)cc2n1)NC(=O)c1ccc(OC(F)(F)F)cc1 (stereo not shown) [Compound 1.010, N-[1-Cyano-2-(5,6-dichloro-2H-benzotriazol-2-yl)-1-methylethyl]-4-trifluoromethoxybenzamide]",≥ 90
8,"COC(=O)c1cc(Cl)cc2nn(CC(C)(C#N)NC(=O)c3ccc(OC(F)(F)F)cc3)nc12 (stereo not shown) [Compound 1.084, Methyl 6-chloro-2-[2-cyano-2-({[4-(trifluoromethoxy)phenyl]carbonyl}-amino)propyl]-2H-benzotriazole-4-carboxylate]",≥ 90
9,"CC(C#N)(Cn1nc2cc(C(F)(F)F)cc(C#N)c2n1)NC(=O)c1ccc(OC(F)(F)F)cc1 (stereo not shown) [Compound 1.054, N-[1-Cyano-2-(4-cyano-6-trifluoromethyl-2H-benzotriazol-2-yl)-1-methylethyl]-4-trifluoromethoxybenzamide]",≥ 90
10,"Cc1c2cc(Cl)cc(Cl)c2nn1CC(C)(C#N)NC(=O)c1ccc(OC(F)(F)F)cc1 (stereo not shown) [Compound 2.010, N-[1-Cyano-2-(5,7-dichloro-3-methyl-2H-indazol-2-yl)-1-methylethyl]-4-trifluoromethoxybenzamide]",≥ 90
11,"Cc1c(Br)cnc2nn(CC(C)(C#N)NC(=O)c3ccc(OC(F)(F)F)cc3)nc12 (stereo not shown) [Compound 3.003, N-[2-(6-Bromo-7-methyl-2H-[1,2,3]triazolo[4,5-b]pyridin-2-yl)-1-cyano-1-methylethyl]-4-trifluoromethoxybenzamide]",≥ 90
12,"CC(C#N)(Cn1nc2ccc(Cl)cc2n1)NC(=O)c1ccc(S(=O)(=O)C(F)(F)F)cc1 (stereo not shown) [Compound 1.031, N-[2-(5-Chloro-2H-benzotriazol-2-yl)-1-cyano-1-methylethyl]-4-trifluoromethylsulfonylbenzamide]",≥ 90
13,"Cc1ccc2nn(CC(C)(C#N)NC(=O)c3ccc(OC(F)(F)F)cc3)nc2c1 (stereo not shown) [Compound 1.006, N-[1-Cyano-1-methyl-2-(5-methyl-2H-benzotriazol-2-yl)ethyl]-4-trifluoromethoxybenzamide]",≥ 90
14,"CSCC(C#N)(Cn1nc2ccc(Cl)cc2n1)NC(=O)c1ccc(OC(F)(F)F)cc1 (stereo not shown) [Compound 1.061, N-[2-(5-Chloro-2H-benzotriazol-2-yl)-1-cyano-1-(methylthiomethyl)ethyl]-4-trifluoromethoxybenzamide]",≥ 90
